# Like-named read-outs stand apart in the source and are kept apart here.
# Key:
# HeLa cells [1] = type: cell-based; details: for increase in relative luciferase activity: 48 hours p.i.
# HeLa cells [2] = assay: GFP-expressing single-stranded AAV9 or scAAV9 vector transduction of HeLa cells, flow cytometry; type: cell-based; details: AAV9 CMV-GFP or scAAV9 CMV-GFP, 20 nM at 8 hours p.i., 48 hours p.i.
# Method: FIG. 20 contains flow cytometry data plotting the infectivity of GFP-expressing single-stranded AAV9 or self-complementary (sc) AAV9 vectors. HeLa cells were infected by AAV9 CMV-GFP or scAAV9 CMV-GFP vectors, followed by treatment with 20 nM meayamycin B at 8 hours p.i. Flow cytometry analysis was performed to observe GFP-positive cell populations at 48 hours p.i.
# To understand the mechanism of U2 snRNP-mediated block of AAV vector transduction, the optimal timing of meayamycin B treatment in relationship to AAV infection was further assessed. Pretreatment with the drug was not needed in order for it to enhance AAV9 infection (FIG. 18). […] To further map the optimal timing of U2 snRNP inhibition for AAV vector transduction, AAV2 and AAV9 vector-infected HeLa cells were treated with 5 nM meayamycin B at various time points and duration, and luciferase activity was assessed at 3 days p.i. […] In contrast, the effects of meayamycin B on AAV vector transduction were impaired when drug was added either 24 or 48 hours p.i. (FIG. 19). Thus, optimal enhancement of AAV vector transduction involved initiation of U2 snRNP inhibition prior to 24 hours post AAV vector infection.
# [3] = system: primary pancreatic islets; assay: AAV8 CMV-GFP transduction of primary mouse pancreatic islets, live imaging; type: cell-based, C57B1/6 mice; details: 2 nM at 3 hours p.i., 48 and 72 hours p.i.
# Method: FIG. 21 contains photographs of murine islet cells exposed to AAV8-GFP vectors along with meayamycin (2 nM). Images of GFP expressing islets were taken at two and three days post infection.
# (§1) The ability of meayamycin B to boost AAV transduction in various cell types, relevant to gene therapy applications, was also tested. First, primary pancreatic islets were isolated from 8 week-old C57B1/6 mice, which were then transduced with AAV8 CMV-GFP and treated with 2 nM meayamycin B 3 hours p.i. Cells were monitored by BioStation Live Imaging for three days. […] (FIG. 21). The effects of meayamycin B on primary human pancreatic islets were then tested. Cells were infected with AAV2 or AAV9 CMV-Luc vectors and treated with 0, 2, 5, or 20 nM meayamycin B at 7 hours p.i. When luciferase expression was monitored at 48 hours p.i., a dose-dependent increase in luciferase expression in AAV2 and AAV9 infected cells (up to 44- and 24-fold increases in AAV9 and AAV2 transduction) was observed (FIG. 22). The effects on neonatal rat cardiomyocytes were tested next. Primary cardiomyocytes were infected with AAV2 CMV-Luc, followed by 0, 2, or 10 nM meayamycin B treatments at 3 hours post infection for 3 days. […] (FIG. 23).
# [4] = system: primary human pancreatic islets; assay: AAV2 or AAV9 CMV-Luc transduction of primary human pancreatic islets, luciferase; type: cell-based; details: human islets, 0, 2, 5 or 20 nM at 7 hours p.i., 48 hours p.i.
# Method: FIG. 22 contains graphs plotting relative light units in human islet cells 48 hours post infection with an AAV2 or AAV9 vector and following treatment with the indicate amount of meayamycin at 7 hours post infection. Luciferase expression was analyzed 48 hours p.i.
# as §1
# [5] = system: neonatal rat cardiomyocytes; assay: AAV2 CMV-Luc or scAAV9 CMV-GFP transduction of neonatal rat cardiomyocytes; type: cell-based
# Method: FIG. 23 presents a graph plotting the relative luciferase activity and images of GFP-expressing cells in neonatal rat cardiomyocytes. Primary cardiomyocytes were infected with AAV2 CMV-Luc or scAAV9 CMV-GFP vectors and treated with meayamycin B, 3 hours p.i. Luciferase activity was measured 3 days p.i., while GFP expression was monitored at 5 days p.i.
# as §1
# [6] = system: primary porcine hepatocytes; assay: AAV2 or AAV9 CMV-Luc transduction of primary porcine hepatocytes, luciferase; type: cell-based; details: porcine hepatocytes, 0, 2 or 20 nM after 8 hours infection, 48 hours p.i.
# Method: FIG. 24 contains graphs plotting the relative luciferase activity in porcine hepatocytes exposed to AAV2 or AAV9 CMV-Luc vectors. Cells were infected with AAV vectors for 8 hours, virus was then removed, and cells were treated with 0, 2, or 20 nM meayamycin B. Cells were harvested 48 hours p.i. for the luciferase assay.
# as §1
# [7] = system: cancer cell lines and clinically relevant cell types, including pancreatic islets and hepatocytes; assay: Summary statement: AAV vector transduction of cancer cell lines and clinically relevant cell types; type: cell-based; details: summary over cell types
# Description: Thus, genetic and/or pharmacological inhibition of U2 snRNP can be used to increase AAV vector transduction, which allows for efficient AAV vector gene therapy with reduced vector doses.
# [8] = HeLa, 5 nM, drug 3 hours p.i., washed 1, 2 or 3 days after, luciferase at 3 days p.i.
compound,measurement,setting,value
CC(/C=C/[C@H]1OC(C)(C)C[C@@]2(CO2)[C@@H]1O)=C\C[C@@H]1O[C@H](C)[C@H](NC(=O)/C=C\[C@H](C)OC(=O)N2CCOCC2)C[C@@H]1C [meayamycin B],increase in relative luciferase activity,HeLa cells [1]; HeLa cells pre-treated at increasing dose 3 hours before AAV9 vector infection,up to 49 fold
same,increase in AAV2 vector transduction (luciferase),HeLa cells [1]; [8],up to 380 fold
same,increase in AAV9 vector transduction (luciferase),HeLa cells [1]; [8],≤ 359 fold
same,increase in relative luciferase activity,"HeLa cells [1]; HeLa, 20 nM, treated 9 hours post AAV9 vector infection",464 fold
same,"effects on AAV vector transduction, late drug addition","HeLa cells [1]; HeLa, AAV2 and AAV9, drug added either 24 or 48 hours p.i.",impaired
same,effect of washout on AAV vector transduction enhancement,"HeLa cells [1]; HeLa, AAV2 and AAV9, washout for 48 hours after 3-24 hours of treatment",did not strongly compromise its effects on AAV vector transduction
same,effect on relative luciferase activity,"HeLa cells [1]; HeLa, AAV9, 20 nM, treatment at 33 hours p.i.",relatively weak effects
same,transduction by GFP-expressing vectors (number and fluorescent intensity of GFP-positive cells),HeLa cells [2],enhanced the transduction by both single-stranded and self-complementary AAV vectors
same,GFP expressing cells in islets vs control islets,[3],increased numbers of GFP expressing cells
same,increase in AAV2 transduction (luciferase expression),[4],≤ 24 fold
same,increase in AAV9 transduction (luciferase expression),[4],up to 44 fold
same,vector transduction (luciferase),"[5]; AAV2 CMV-Luc, 2 nM at 3 hours post infection for 3 days",did not strongly improve vector transduction
same,increase in luciferase expression,"[5]; AAV2 CMV-Luc, 10 nM at 3 hours post infection for 3 days",72 fold
same,GFP expression,"[5]; scAAV9 CMV-GFP, 10 nM, 5 days p.i.",notable increase in GFP expression
same,increase in AAV2 vector transduction (luciferase),[6],≤ 18 fold
same,increase in AAV9 vector transduction (luciferase),[6],up to 57 fold
same,increase in vector transduction,[7],up to 1000 fold

# Reference: patent US11207424B2, “Methods and materials for increasing viral vector infectivity” (Mayo Foundation for Medical Education and Research, priority 2014, dated 2021)
